System: RS411 cells
Assay: Cell Viability CTG Assay (CellTiter Glo) in RS411 cells
Type: cell-based
Settings: Homo sapiens, RS4-11, 24 h, duration 1 day
Procedure: Example 23. Cell Viability CTG Assay
Day 0: Compounds or DMSO 60 nL were stamped to the cell plate as the platemap. RS411 cells were centrifuged at 800 rpm for 5 min, suspended with culture medium, and counted with Countess (Invitrogen). The cell density was adjusted to the recommend information. 30 μL of cell solution (1000 cells/well) was added to the assay plate as the platemap and 30 uL of media was added to column 2 and column 23 as the platemap. The plate was spun down briefly. The final concentration of the compounds started at 10 μM (3 fold dilution and 11 doses) and final DMSO concentration was 0.2%. The plate was spun down briefly and incubated at 37° C., 5% CO2 for 1-4 days.
30 μL CellTiter Glo reagent was added to each well and the plate was centrifuged at 1000 rpm for 30 sec. The plate was shaken for 1 min and centrifuged at 1000 rpm for 30 sec. The plate was incubated at RT for 10 min to stabilize the luminescent signal and the luminescence was read by EnVision.
The letter codes for IC50 indicate the concentration of compound required to affect 50% of cells: A (<0.05 μM), B (0.05-0.1 μM), C (0.1-0.5 μM), D (0.5-1.0 μM), and E (>1.0 μM).

| IC50 [nM] | Structure (SMILES) |
| --- | --- |
| < 50 | Cn1c(=O)n(C2CCC(=O)NC2=O)c2cccc(C#CCNC(=O)c3ccc(NC(=O)[C@@H]4NC5(CCCCC5)[C@@]5(C(=O)Nc6cc(Cl)ccc65)[C@H]4c4cccc(Cl)c4F)cc3)c21 (stereo partly drawn) [I-46] |
| 50 to 100 | Cn1c(=O)n(C2CCC(=O)NC2=O)c2cccc(C#C[C@@H]3CN(C(=O)c4ccc(NC(=O)[C@@H]5NC6(CCCCC6)[C@@]6(C(=O)Nc7cc(Cl)ccc76)[C@H]5c5cccc(Cl)c5F)cc4)CCO3)c21 (stereo partly drawn) [I-47] |
| < 50 | Cn1c(=O)n(C2CCC(=O)NC2=O)c2ccc(C#CCCNC(=O)c3ccc(NC(=O)[C@@H]4NC5(CCCCC5)[C@@]5(C(=O)Nc6cc(Cl)ccc65)[C@H]4c4cccc(Cl)c4F)cc3)cc21 (stereo partly drawn) [I-48] |
| < 50 | Cn1c(=O)n(C2CCC(=O)NC2=O)c2cccc(CN3CCC(OC4CCN(C(=O)c5ccc(NC(=O)[C@@H]6NC7(CCCCC7)[C@@]7(C(=O)Nc8cc(Cl)ccc87)[C@H]6c6cccc(Cl)c6F)cc5)CC4)CC3)c21 (stereo partly drawn) [I-49] |
| < 50 | Cn1c(=O)n(C2CCC(=O)NC2=O)c2cccc(CCCC(=O)N3CCN(C(=O)c4ccc(NC(=O)[C@@H]5NC6(CCCCC6)[C@@]6(C(=O)Nc7cc(Cl)ccc76)[C@H]5c5cccc(Cl)c5F)cc4)CC3)c21 (stereo partly drawn) [I-50] |
| < 50 | Cn1c(=O)n(C2CCC(=O)NC2=O)c2cccc(C#CCCCNC(=O)c3ccc(NC(=O)[C@@H]4NC5(CCCCC5)[C@@]5(C(=O)Nc6cc(Cl)ccc65)[C@H]4c4cccc(Cl)c4F)cc3)c21 (stereo partly drawn) [I-51] |
| < 50 | CN(CCCOCCCc1cccc2c1n(C)c(=O)n2C1CCC(=O)NC1=O)C(=O)c1ccc(NC(=O)[C@@H]2NC3(CCCCC3)[C@@]3(C(=O)Nc4cc(Cl)ccc43)[C@H]2c2cccc(Cl)c2F)cc1 (stereo partly drawn) [I-52] |
| 50 to 100 | Cn1c(=O)n(C2CCC(=O)NC2=O)c2cccc(CCC3CC4(CCN(C(=O)c5ccc(NC(=O)[C@@H]6NC7(CCCCC7)[C@@]7(C(=O)Nc8cc(Cl)ccc87)[C@H]6c6cccc(Cl)c6F)cc5)CC4)C3)c21 (stereo partly drawn) [I-53] |
| 50 to 100 | Cn1c(=O)n(C2CCC(=O)NC2=O)c2cccc(N3CCC4(CCN(C(=O)c5ccc(NC(=O)[C@@H]6NC7(CCCCC7)[C@@]7(C(=O)Nc8cc(Cl)ccc87)[C@H]6c6cccc(Cl)c6F)cc5)CC4)CC3)c21 (stereo partly drawn) [I-55] |
| < 50 | CN(C[C@@H]1CN(CC#Cc2ccc3c(c2)n(C)c(=O)n3C2CCC(=O)NC2=O)CCO1)C(=O)c1ccc(NC(=O)[C@@H]2NC3(CCCCC3)[C@@]3(C(=O)Nc4cc(Cl)ccc43)[C@H]2c2cccc(Cl)c2F)cc1 (stereo partly drawn) [I-56] |
| < 50 | Cn1c(=O)n(C2CCC(=O)NC2=O)c2cccc(C3CCN(C(=O)c4ccc(NC(=O)[C@@H]5NC6(CCCCC6)[C@@]6(C(=O)Nc7cc(Cl)ccc76)[C@H]5c5cccc(Cl)c5F)cc4)CC3)c21 (stereo partly drawn) [I-58] |
| < 50 | Cn1c(=O)n(C2CCC(=O)NC2=O)c2cccc(NCC3CC4(C3)CN(C(=O)c3ccc(NC(=O)[C@@H]5NC6(CCCCC6)[C@@]6(C(=O)Nc7cc(Cl)ccc76)[C@H]5c5cccc(Cl)c5F)cc3)C4)c21 (stereo partly drawn) [I-59] |
| < 50 | Cn1c(=O)n(C2CCC(=O)NC2=O)c2cccc(C#CCN3CCC4(CC3)CN(C(=O)c3ccc(NC(=O)[C@@H]5NC6(CCCCC6)[C@@]6(C(=O)Nc7cc(Cl)ccc76)[C@H]5c5cccc(Cl)c5F)cc3)C4)c21 (stereo partly drawn) [I-60] |
| < 50 | Cn1c(=O)n(C2CCC(=O)NC2=O)c2cccc(CCN3CC4(CCN(C(=O)c5ccc(NC(=O)[C@@H]6NC7(CCCCC7)[C@@]7(C(=O)Nc8cc(Cl)ccc87)[C@H]6c6cccc(Cl)c6F)cc5)CC4)C3)c21 (stereo partly drawn) [I-61] |
| 50 to 100 | CN(CCC#Cc1cccc2c1n(C)c(=O)n2C1CCC(=O)NC1=O)C(=O)c1ccc(NC(=O)[C@@H]2NC3(CCCCC3)[C@@]3(C(=O)Nc4cc(Cl)ccc43)[C@H]2c2cccc(Cl)c2F)cc1 (stereo partly drawn) [I-62] |
| < 50 | CN(C(=O)c1ccc(NC(=O)[C@@H]2NC3(CCCCC3)[C@@]3(C(=O)Nc4cc(Cl)ccc43)[C@H]2c2cccc(Cl)c2F)cc1)C1CCN(Cc2cccc3c2n(C)c(=O)n3C2CCC(=O)NC2=O)CC1 (stereo partly drawn) [I-63] |
| < 50 | Cn1c(=O)n(C2CCC(=O)NC2=O)c2cccc(CCCOC3CCN(C(=O)c4ccc(NC(=O)[C@@H]5NC6(CCCCC6)[C@@]6(C(=O)Nc7cc(Cl)ccc76)[C@H]5c5cccc(Cl)c5F)cc4)CC3)c21 (stereo partly drawn) [I-64] |

| IC50 [nM] | Structure (SMILES) |
| --- | --- |
| < 50 | Cn1c(=O)n(C2CCC(=O)NC2=O)c2cccc(N3CCC4(CC3)CN(C(=O)c3ccc(NC(=O)[C@@H]5NC6(CCCCC6)[C@@]6(C(=O)Nc7cc(Cl)ccc76)[C@H]5c5cccc(Cl)c5F)cc3)C4)c21 (stereo partly drawn) [I-65] |
| < 50 | CN(CCCCCc1ccc2c(c1)n(C)c(=O)n2C1CCC(=O)NC1=O)C[C@H]1CC[C@H](NC(=O)[C@@H]2NC3(CCC(C)(C)CC3)[C@@]3(C(=O)Nc4cc(Cl)ccc43)[C@H]2c2cccc(Cl)c2F)CC1 (stereo partly drawn) [I-66] |
| < 50 | Cn1c(=O)n(C2CCC(=O)NC2=O)c2ccc(CCCCCNC(=O)[C@H]3CC[C@H](NC(=O)[C@@H]4NC5(CCCCC5)[C@@]5(C(=O)Nc6cc(Cl)ccc65)[C@H]4c4cccc(Cl)c4F)CC3)cc21 (stereo partly drawn) [I-67, (3′R,4'S,5′R)-6″-chloro-4′-(3-chloro-2-fluorophenyl)-N-((1r,4R)-4-((5-(1-(2,6-dioxopiperidin-3-yl)-3-methyl-2-oxo-2,3-dihydro-1H-benzo[d]imidazol-5-yl)pentyl)carbamoyl)cyclohexyl)-2″-oxodispiro[cyclohexane-1,2′-pyrrolidine-3′,3″-indoline]-5′-carboxamide] |
| < 50 | Cn1c(=O)n(C2CCC(=O)NC2=O)c2ccc(C#CC3CCN(C[C@H]4CC[C@H](NC(=O)[C@@H]5NC6(CCC(C)(C)CC6)[C@@]6(C(=O)Nc7cc(Cl)ccc76)[C@H]5c5cccc(Cl)c5F)CC4)CC3)cc21 (stereo partly drawn) [I-68] |
| < 50 | Cn1c(=O)n(C2CCC(=O)NC2=O)c2ccc(C#CC3CCN(C(=O)[C@H]4CC[C@H](NC(=O)[C@@H]5NC6(CCCCC6)[C@@]6(C(=O)Nc7cc(Cl)ccc76)[C@H]5c5cccc(Cl)c5F)CC4)CC3)cc21 (stereo partly drawn) [I-69] |
| < 50 | Cn1c(=O)n(C2CCC(=O)NC2=O)c2ccc(C#CC3CCN(C[C@H]4CC[C@H](NC(=O)[C@@H]5NC6(CCCCC6)[C@@]6(C(=O)Nc7cc(Cl)ccc76)[C@H]5c5cccc(Cl)c5F)CC4)CC3)cc21 (stereo partly drawn) [I-70] |
| < 50 | Cn1c(=O)n(C2CCC(=O)NC2=O)c2ccc(C#CC3CCN(C(=O)[C@H]4CC[C@H](NC(=O)[C@@H]5NC6(CCC(C)(C)CC6)[C@@]6(C(=O)Nc7cc(Cl)ccc76)[C@H]5c5cccc(Cl)c5F)CC4)CC3)cc21 (stereo partly drawn) [I-71] |
| < 50 | Cn1c(=O)n(C2CCC(=O)NC2=O)c2ccc(CCCCCNC(=O)[C@H]3CC[C@H](NC(=O)[C@@H]4NC5(CCC(C)(C)CC5)[C@@]5(C(=O)Nc6cc(Cl)ccc65)[C@H]4c4cccc(Cl)c4F)CC3)cc21 (stereo partly drawn) [I-72] |
| < 50 | Cn1c(=O)n(C2CCC(=O)NC2=O)c2ccc(CCCCCNC(=O)c3ccc(NC(=O)[C@@H]4NC5(CCC(C)(C)CC5)[C@@]5(C(=O)Nc6cc(Cl)ccc65)[C@H]4c4cccc(Cl)c4F)cc3)cc21 (stereo partly drawn) [I-74, (3′R,4'S,5′R)-6″-chloro-4′-(3-chloro-2-fluorophenyl)-N-(4-((5-(1-(2,6-dioxopiperidin-3-yl)-3-methyl-2-oxo-2,3-dihydro-1H-benzo[d]imidazol-5-yl)pentyl)carbamoyl)phenyl)-4,4-dimethyl-2″-oxodispiro[cyclohexane-1,2′-pyrrolidine-3′,3″-indoline]-5′-carboxamide] |
| < 50 | Cn1c(=O)n(C2CCC(=O)NC2=O)c2ccc(C#CC3CCN(C(=O)C45CCC(NC(=O)[C@@H]6NC7(CCCCC7)[C@@]7(C(=O)Nc8cc(Cl)ccc87)[C@H]6c6cccc(Cl)c6F)(CC4)CC5)CC3)cc21 (stereo partly drawn) [I-75] |
| 100 to 500 | Cn1c(=O)n(C2CCC(=O)NC2=O)c2ccc(C#CC3CCN(C(=O)c4ccc(NC(=O)[C@@H]5NC6(CCC(C)(C)CC6)[C@@]6(C(=O)Nc7cc(Cl)ccc76)[C@H]5c5cccc(Cl)c5F)cc4)CC3)cc21 (stereo partly drawn) [I-76] |
| < 50 | CN1[C@@H](C(=O)Nc2ccc(CN3CCC(CCc4ccc5c(c4)n(C)c(=O)n5C4CCC(=O)NC4=O)CC3)cc2)[C@H](c2cccc(Cl)c2F)[C@]2(C(=O)Nc3cc(Cl)ccc32)C12CCCCC2 (stereo partly drawn) [I-77] |
| < 50 | Cn1c(=O)n(C2CCC(=O)NC2=O)c2ccc(CCCCCNC(=O)c3cccc(NC(=O)[C@@H]4NC5(CCCCC5)[C@@]5(C(=O)Nc6cc(Cl)ccc65)[C@H]4c4cccc(Cl)c4F)c3)cc21 (stereo partly drawn) [I-78] |
| < 50 | Cn1c(=O)n(C2CCC(=O)NC2=O)c2ccc(C#CC3CCN(Cc4ccc(NC(=O)[C@@H]5NC6(CCCCC6)[C@@]6(C(=O)Nc7cc(Cl)ccc76)[C@H]5c5cccc(Cl)c5F)cc4)CC3)cc21 (stereo partly drawn) [I-79] |
| < 50 | CN1[C@@H](C(=O)Nc2ccc(C(=O)N3CCC(C#Cc4ccc5c(c4)n(C)c(=O)n5C4CCC(=O)NC4=O)CC3)cc2)[C@H](c2cccc(Cl)c2F)[C@]2(C(=O)Nc3cc(Cl)ccc32)C12CCCCC2 (stereo partly drawn) [I-80] |
| < 50 | CN1[C@@H](C(=O)Nc2ccc(C(=O)NCCCCCc3ccc4c(c3)n(C)c(=O)n4C3CCC(=O)NC3=O)cc2)[C@H](c2cccc(Cl)c2F)[C@]2(C(=O)Nc3cc(Cl)ccc32)C12CCC(C)(C)CC2 (stereo partly drawn) [I-81] |
| < 50 | Cn1c(=O)n(C2CCC(=O)NC2=O)c2ccc(C#CCCCNC(=O)[C@H]3CC[C@H](NC(=O)[C@@H]4NC5(CCCCC5)[C@@]5(C(=O)Nc6cc(Cl)ccc65)[C@H]4c4cccc(Cl)c4F)CC3)cc21 (stereo partly drawn) [I-82] |

| Structure (SMILES) | IC50 [nM] |
| --- | --- |
| O=C1CCC(n2c(=O)oc3c(CCCOC4CCN(C(=O)c5ccc(NC(=O)[C@@H]6NC7(CCCCC7)[C@@]7(C(=O)Nc8cc(Cl)ccc87)[C@H]6c6cccc(Cl)c6F)cc5)CC4)cccc32)C(=O)N1 (stereo partly drawn) [I-54] | 50 to 100 |
| O=C1CCC(n2c(=O)oc3cc(CCCOCCOCCNC(=O)c4ccc(NC(=O)[C@@H]5NC6(CCCCC6)[C@@]6(C(=O)Nc7cc(Cl)ccc76)[C@H]5c5cccc(Cl)c5F)cc4)ccc32)C(=O)N1 (stereo partly drawn) [I-57] | < 50 |

— US11932624B2, “MDM2 degraders and uses thereof” (Kymera Therapeutics, Inc., priority 2020, dated 2024)
